Assay results reported in patent US11312723B2, “Pyranopyrazole and pyrazolopyridine immunomodulators for treatment of autoimmune diseases” (The Rockefeller University, priority 2017, dated 2022).

How the values were obtained:
Human alpha-thrombin = Human alpha-thrombin (Homo sapiens (Human), UniProt P00734); assay: Thrombin counterscreen for selectivity, fluorogenic substrate cleavage; assay type: biochemical; settings: 10 min pre-incubation, Boc-Val-Pro-Arg-AMC 20 μM
Description: Counterscreens for Selectivity:
Thrombin. In a 96-well white opaque plate, 80 μl of assay buffer was added to each well. Test compounds were added, and serially diluted as above, to generate a concentration range of approximately 1-100 μM. Human alpha-thrombin (Enzyme Research Labs) was diluted in assay buffer to a final concentration of 12.5 nM. 80 μl of this enzyme solution was added to the assay wells. The enzyme/compound mixtures were incubated for 10 minutes at room temperature. Fluorogenic substrate (Boc-Val-Pro-Arg-7-amido-4-methylcoumarin; Sigma) was added to assay wells at a final concentration of 20 μM. The assay plate was spun for 1 minute at 1500 g and then read at 37° C. in a SpectraMax M2 plate reader (λex=380 nm and λem=460 nm). Activity was quantified as the rate of change in fluorescence, which corresponds to the rate of substrate cleavage. IC50 values were determined as the concentration of inhibitor that produced 50% of the rate of change of control wells without any inhibitor. For compounds with activity <1 μM, the assay was repeated with a lower concentration range, typically from 10-1000 nM.

Human FXIIa = Human FXIIa (Homo sapiens (Human), UniProt P00748); assay: Factor XIIa (FXIIa) inhibitory activity, chromogenic substrate (Pefachrome XIIa) cleavage; assay type: biochemical; settings: 10 min pre-incubation, Pefachrome XIIa 400 μM
Chain of Human FXIIa (P00748 373-615): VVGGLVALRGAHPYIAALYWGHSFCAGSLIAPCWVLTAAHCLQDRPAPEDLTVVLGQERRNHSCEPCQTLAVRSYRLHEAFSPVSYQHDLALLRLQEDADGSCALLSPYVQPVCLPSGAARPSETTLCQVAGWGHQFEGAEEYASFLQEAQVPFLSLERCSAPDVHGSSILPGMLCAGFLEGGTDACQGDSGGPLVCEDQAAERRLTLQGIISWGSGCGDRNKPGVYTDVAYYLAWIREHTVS
Chain of Human FXIIa (P00748 20-372 partner): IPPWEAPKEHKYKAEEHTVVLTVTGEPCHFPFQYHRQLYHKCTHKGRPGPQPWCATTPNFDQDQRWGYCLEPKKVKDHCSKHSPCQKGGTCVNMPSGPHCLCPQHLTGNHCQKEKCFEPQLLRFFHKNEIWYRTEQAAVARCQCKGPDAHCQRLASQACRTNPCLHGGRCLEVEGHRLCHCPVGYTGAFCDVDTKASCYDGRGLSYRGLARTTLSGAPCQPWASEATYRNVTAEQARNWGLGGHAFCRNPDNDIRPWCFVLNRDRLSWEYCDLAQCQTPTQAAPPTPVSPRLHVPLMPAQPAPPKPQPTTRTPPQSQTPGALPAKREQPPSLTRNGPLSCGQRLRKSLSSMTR

Row | IC50 (Human alpha-thrombin) [µM] | IC50 (Human FXIIa) [µM] | SMILES
1 | 17 | 11 | CS(=O)(=O)N1CCc2c(nn(C(=O)C3CCNc4ccc(-c5ccccc5)cc43)c2N)C1 (stereo not shown) [Example 49, (3-amino-6-(methylsulfonyl)-4,5,6,7-tetrahydropyrazolo[3,4-c]pyridin-2-yl)(6-phenyl-1,2,3,4-tetrahydroquinolin-4-yl)methanone]
2 | 15 | 0.02 | Cc1cc(F)cc2c1NCCC2C(=O)n1nc2c(c1N)CCN(S(C)(=O)=O)C2 (stereo not shown) [Example 51, (3-amino-6-(methylsulfonyl)-4,5,6,7-tetrahydropyrazolo[3,4-c]pyridin-2-yl)(6-fluoro-8-methyl-1,2,3,4-tetrahydroquinolin-4-yl)methanone]
3 | > 70 | 0.04 | CCc1cc(C)c2c(c1)C(C(=O)n1nc3c(c1N)CCN(S(C)(=O)=O)C3)CCN2 (stereo not shown) [Example 55, (3-amino-6-(methylsulfonyl)-4,5,6,7-tetrahydropyrazolo[3,4-c]pyridin-2-yl)(6-ethyl-8-methyl-1,2,3,4-tetrahydroquinolin-4-yl)methanone]
4 | 16 | 0.05 | CS(=O)(=O)N1CCc2c(nn(C(=O)C3CCNc4c(Cl)cccc43)c2N)C1 (stereo not shown) [Example 57, (3-amino-6-(methylsulfonyl)-4,5,6,7-tetrahydropyrazolo[3,4-c]pyridin-2-yl)(8-chloro-1,2,3,4-tetrahydroquinolin-4-yl)methanone]
5 | 20 | 0.1 | COc1cccc2c1NCCC2C(=O)n1nc2c(c1N)CCN(S(C)(=O)=O)C2 (stereo not shown) [Example 61, (3-amino-6-(methylsulfonyl)-4,5,6,7-tetrahydropyrazolo[3,4-c]pyridin-2-yl)(8-methoxy-1,2,3,4-tetrahydroquinolin-4-yl)methanone]
6 | > 70 | 0.15 | CS(=O)(=O)N1CCc2c(nn(C(=O)C3CCNc4c3cccc4C(F)(F)F)c2N)C1 (stereo not shown) [Example 67, (3-amino-6-(methylsulfonyl)-4,5,6,7-tetrahydropyrazolo[3,4-c]pyridin-2-yl)(8-(trifluoromethyl)-1,2,3,4-tetrahydroquinolin-4-yl)methanone]
7 | 50 | 0.08 | Nc1c2c(nn1C(=O)C1CCNc3ccc(F)cc31)CCOC2 (stereo not shown) [Example 74, (3-amino-6,7-dihydropyrano[4,3-c]pyrazol-2(4H)-yl)(6-fluoro-1,2,3,4-tetrahydroquinolin-4-yl)methanone]
8 | 60 | 0.03 | Cc1cc2c(C(=O)n3nc4c(c3N)CN(C)CC4)cccc2[nH]1 [Example 85, (3-amino-5-methyl-4,5,6,7-tetrahydro-pyrazolo[4,3-c]pyridin-2-yl)(2-methyl-1H-indol-4-yl)methanone]
9 | > 100 | 0.8 | COC(=O)N1CCc2nn(C(=O)C3CCNc4ccccc43)c(N)c2C1 (stereo not shown) [Example 87, methyl 3-amino-2-(1,2,3,4-tetrahydro-quinoline-4-carbonyl)-6,7-dihydro-2H-pyrazolo[4,3-c]pyridine-5(4H)-carboxylate]
10 | > 80 | 0.8 | CNC(=O)N1CCc2nn(C(=O)C3CCNc4ccccc43)c(N)c2C1 (stereo not shown) [Example 89, 3-amino-N-methyl-2-(1,2,3,4-tetrahydro-quinoline-4-carbonyl)-6,7-dihydro-2H-pyrazolo[4,3-c]pyridine-5(4H)-carboxamide]
11 | 12 | 1.5 | CNC(=O)N1CCc2c(c(N)nn2C(=O)C2CCNc3ccccc32)C1 (stereo not shown) [Example 90, 3-amino-N-methyl-1-(1,2,3,4-tetrahydro-quinoline-4-carbonyl)-6,7-dihydro-1H-pyrazolo[4,3-c]pyridine-5(4H)-carboxamide]
12 | > 70 | 1.5 | CS(=O)(=O)N1CCc2nn(C(=O)C3CCNc4ccccc43)c(N)c2C1 (stereo not shown) [Example 91, (3-amino-5-(methylsulfonyl)-4,5,6,7-tetrahydro-pyrazolo[4,3-c]pyridin-2-yl)(1,2,3,4-tetrahydro-quinolin-4-yl)methanone]
13 | > 100 | 1.3 | CCN1CCc2nn(C(=O)C3CCNc4ccccc43)c(N)c2C1 (stereo not shown) [Example 93, (3-amino-5-ethyl-4,5,6,7-tetrahydro-pyrazolo[4,3-c]pyridin-2-yl)(1,2,3,4-tetrahydro-quinolin-4-yl)methanone]
14 | > 80 | > 50 | CCN1CCc2c(c(N)nn2C(=O)C2CCNc3ccccc32)C1 (stereo not shown) [Example 94, (3-amino-5-ethyl-4,5,6,7-tetrahydro-pyrazolo[4,3-c]pyridin-1-yl)(1,2,3,4-tetrahydro-quinolin-4-yl)methanone]
15 | > 50 | 0.7 | CC(=O)N1CCc2nn(C(=O)C3CCNc4ccccc43)c(N)c2C1 (stereo not shown) [Example 95, 1-(3-amino-2-(1,2,3,4-tetrahydro-quinoline-4-carbonyl)-6,7-dihydro-2H-pyrazolo[4,3-c]pyridin-5(4H)-yl)ethanone]
16 | > 80 | 8.5 | CN1CCc2nn(C(=O)C3CCCc4[nH]ccc43)c(N)c2C1 (stereo not shown) [Example 97, (3-amino-5-methyl-4,5,6,7-tetrahydro-pyrazolo[4,3-c]pyridin-2-yl)(4,5,6,7-tetrahydro-1H-indol-4-yl)methanone]
17 | 70 | 20 | CN1CCc2c(c(N)nn2C(=O)C2CCCc3[nH]ccc32)C1 (stereo not shown) [Example 98, (3-amino-5-methyl-4,5,6,7-tetrahydro-pyrazolo[4,3-c]pyridin-1-yl)(4,5,6,7-tetrahydro-1H-indol-4-yl)methanone]
18 | > 50 | 0.04 | CC(=O)N1CCc2c(nn(C(=O)c3cccc4[nH]c(C)cc34)c2N)C1 [Example 99, 1-(3-amino-2-(2-methyl-1H-indole-4-carbonyl)-4,5-dihydro-2H-pyrazolo[3,4-c]pyridin-6(7H)-yl)ethanone]
19 | 10 | 0.02 | Cc1cc2c(C(=O)n3nc4c(c3N)CCN(S(C)(=O)=O)C4)cccc2[nH]1 [Example 101, (3-amino-6-(methylsulfonyl)-4,5,6,7-tetrahydro-pyrazolo[3,4-c]pyridin-2-yl)(2-methyl-1H-indol-4-yl)methanone]
20 | 30 | 0.35 | CS(=O)(=O)N1CCc2c(nn(C(=O)C3CCNc4ccccc43)c2N)C1 (stereo not shown) [Example 103, (3-amino-6-(methylsulfonyl)-4,5,6,7-tetrahydro-pyrazolo[3,4-c]pyridin-2-yl)(1,2,3,4-tetrahydro-quinolin-4-yl)methanone]
21 | > 85 | 80 | CS(=O)(=O)N1CCc2c(N)nn(C(=O)C3CCNc4ccccc43)c2C1 (stereo not shown) [Example 104, (3-amino-6-(methylsulfonyl)-4,5,6,7-tetrahydro-pyrazolo[3,4-c]pyridin-1-yl)(1,2,3,4-tetrahydro-quinolin-4-yl)methanone]
22 | > 100 | 1 | Nc1c2c(nn1C(=O)C1CCNc3ccccc31)CN(S(=O)(=O)c1ccccc1)CC2 (stereo not shown) [Example 105, (3-amino-6-(phenylsulfonyl)-4,5,6,7-tetrahydro-pyrazolo[3,4-c]pyridin-2-yl)(1,2,3,4-tetrahydro-quinolin-4-yl)methanone]
23 | 70 | 50 | Nc1nn(C(=O)C2CCNc3ccccc32)c2c1CCN(S(=O)(=O)c1ccccc1)C2 (stereo not shown) [Example 106, (3-amino-6-(phenylsulfonyl)-4,5,6,7-tetrahydro-pyrazolo[3,4-c]pyridin-1-yl)(1,2,3,4-tetrahydro-quinolin-4-yl)methanone]
24 | > 40 | 1.8 | CC(=O)N1CCc2c(nn(C(=O)C3CCNc4ccccc43)c2N)C1 (stereo not shown) [Example 107, 1-(3-amino-2-(1,2,3,4-tetrahydro-quinoline-4-carbonyl)-4,5-dihydro-2H-pyrazolo[3,4-c]pyridin-6(7H)-yl)ethanone]
25 | > 150 | 80 | CC(=O)N1CCc2c(N)nn(C(=O)C3CCNc4ccccc43)c2C1 (stereo not shown) [Example 108, 1-(3-amino-1-(1,2,3,4-tetrahydro-quinoline-4-carbonyl)-4,5-dihydro-1H-pyrazolo[3,4-c]pyridin-6(7H)-yl)ethanone]
26 | > 75 | 0.8 | Nc1c2c(nn1C(=O)C1CCNc3ccccc31)CN(C(=O)c1ccccc1)CC2 (stereo not shown) [Example 109, (3-amino-2-(1,2,3,4-tetrahydro-quinoline-4-carbonyl)-4,5-dihydro-2H-pyrazolo[3,4-c]pyridin-6(7H)-yl)(phenyl)-methanone]
27 | > 65 | 60 | Nc1nn(C(=O)C2CCNc3ccccc32)c2c1CCN(C(=O)c1ccccc1)C2 (stereo not shown) [Example 110, (3-amino-1-(1,2,3,4-tetrahydro-quinoline-4-carbonyl)-4,5-dihydro-1H-pyrazolo[3,4-c]pyridin-6(7H)-yl)(phenyl)-methanone]
28 | > 50 | 2 | CNS(=O)(=O)N1CCc2c(nn(C(=O)C3CCNc4ccccc43)c2N)C1 (stereo not shown) [Example 111, 3-amino-N-methyl-2-(1,2,3,4-tetrahydro-quinoline-4-carbonyl)-4,5-dihydro-2H-pyrazolo[3,4-c]pyridine-6(7H)-sulfonamide]
29 | > 70 | > 70 | CNS(=O)(=O)N1CCc2c(N)nn(C(=O)C3CCNc4ccccc43)c2C1 (stereo not shown) [Example 112, 3-amino-N-methyl-1-(1,2,3,4-tetrahydro-quinoline-4-carbonyl)-4,5-dihydro-1H-pyrazolo[3,4-c]pyridine-6(7H)-sulfonamide]
